Data on eight compounds can be found in patent US20130317045A1, “THIENOPYRIDINE AND THIENOPYRIMIDINE COMPOUNDS AND METHODS OF USE THEREOF” (AMBIT BIOSCIENCES CORPORATION, priority 2010, published 2013).

One test deals with T1, TYK2 (Homo sapiens, UniProt P29597).
T1 construct: made in house
In words: Competition binding assay, TYK2. The source says: (§1) Competition Binding Assay to Determine Binding Constants (Kd) of the Compounds Against JAK Kinases
(§2) Competition binding assays used herein were developed, validated and performed as described in Fabian et al., Nature Biotechnology 2005, 23,329-336. Kinases were produced as fusions to T7 phage (See, Fabian et al. or WO04/015142) or alternatively, the kinases were expressed in HEK-293 cells and subsequently tagged with DNA for PCR detection (See, WO08/005310). For the binding assays, streptavidin-coated magnetic beads were treated with biotinylated affinity ligands for 30 min at rt to generate affinity resins. The liganded beads were blocked with excess biotin and washed with blocking buffer (SeaBlock (Pierce), 1% BSA, 0.05% Tween 20, 1 mM DTT) to remove unbound ligand and to reduce non-specific binding. Binding reactions were assembled by combining kinase, liganded affinity beads, and test compounds in 1× binding buffer (20% SeaBlock, 0.17×PBS, 0.05% Tween 20, 6 mM DTT). Test compounds were prepared as 100× stocks in DMSO and rapidly diluted into the aqueous environment. DMSO was added to control assays lacking a test compound. Primary screen interactions were performed in polypropylene 384-well plates in a final volume of 34 μL, while Kd determinations were performed in polystyrene 96-well plates in a final volume of 135 μL. The assay plates were incubated at room temperature with shaking for 1 hour, long enough for binding reactions to reach equilibrium, and the affinity beads were washed extensively with wash buffer (1× PBS, 0.05% Tween 20) to remove unbound protein. The beads were then resuspended in elution buffer (1× PBS, 0.05% Tween 20, 2 μM non-biotinylated affinity ligand) and incubated at room temperature with shaking for 30 min. The kinase concentration in the eluates was measured by quantitative PCR. Each kinase was tested individually against each compound. Kds were determined using eleven serial threefold dilutions. A selectivity score, which is a quantitative measure of selectivity of a compound against a panel of enzymes, may be calculated for a compound by dividing the number of enzymes for which a compound meets a set criteria, (for example, a binding constant of 100 nM or less), by the total number of enzymes tested.

The target of another test is T2, JAK3 (Homo sapiens, UniProt P52333).
T2 construct: made in house
T2 sequence (P52333 1-1124): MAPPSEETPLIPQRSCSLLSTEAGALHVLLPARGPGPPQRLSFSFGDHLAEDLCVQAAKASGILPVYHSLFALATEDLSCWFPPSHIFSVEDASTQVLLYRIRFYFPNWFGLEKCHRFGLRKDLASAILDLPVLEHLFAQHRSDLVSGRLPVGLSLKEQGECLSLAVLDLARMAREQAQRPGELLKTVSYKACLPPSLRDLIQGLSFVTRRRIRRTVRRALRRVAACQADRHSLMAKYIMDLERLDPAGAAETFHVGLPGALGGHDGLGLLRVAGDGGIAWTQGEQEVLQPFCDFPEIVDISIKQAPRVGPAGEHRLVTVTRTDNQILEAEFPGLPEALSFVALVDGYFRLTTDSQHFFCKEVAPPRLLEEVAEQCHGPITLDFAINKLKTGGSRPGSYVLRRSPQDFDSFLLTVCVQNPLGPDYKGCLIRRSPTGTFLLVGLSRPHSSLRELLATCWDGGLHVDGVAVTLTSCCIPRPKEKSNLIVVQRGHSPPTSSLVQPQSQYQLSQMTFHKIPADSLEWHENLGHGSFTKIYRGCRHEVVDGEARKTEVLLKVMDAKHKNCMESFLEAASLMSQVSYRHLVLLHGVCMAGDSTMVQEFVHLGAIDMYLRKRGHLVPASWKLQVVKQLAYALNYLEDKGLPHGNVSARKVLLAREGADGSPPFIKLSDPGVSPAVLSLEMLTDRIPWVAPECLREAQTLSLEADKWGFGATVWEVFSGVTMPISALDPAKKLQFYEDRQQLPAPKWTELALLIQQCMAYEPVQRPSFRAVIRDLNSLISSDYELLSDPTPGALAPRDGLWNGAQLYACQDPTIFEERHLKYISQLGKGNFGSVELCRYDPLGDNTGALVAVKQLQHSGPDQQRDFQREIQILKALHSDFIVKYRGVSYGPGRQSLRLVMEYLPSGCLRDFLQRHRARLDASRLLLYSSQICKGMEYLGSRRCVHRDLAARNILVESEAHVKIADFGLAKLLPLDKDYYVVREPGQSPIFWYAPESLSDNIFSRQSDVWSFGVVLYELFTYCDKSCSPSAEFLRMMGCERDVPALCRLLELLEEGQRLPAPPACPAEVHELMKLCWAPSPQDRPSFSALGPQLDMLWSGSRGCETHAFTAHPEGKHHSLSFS
Nature of the test: Competition binding assay, JAK3.
Excerpt: as §1, §2

Another test addresses T3, JAK2 (Homo sapiens, UniProt O60674).
T3 construct: made in house
In words: Competition binding assay, JAK2.
Excerpt: as §1, §2

Test [1] deals with distinct kinases tested excluding mutant variants, typically 359 or 386 kinases. Nature of the test: Kinase selectivity score from competition binding panel. The conditions noted are these: compound at 10 μM; fraction of kinases with inhibition of 90% or greater. The protocol:
as §2

Test [2] has as its system GM-CSFR/JAK2/STAT5 pathway in CSTF-1 cells. In words: CSTF-1 cell-based reporter assay (beta-lactamase, GM-CSF stimulated). More on the design: species or system human. Particulars: GM-CSF at 2 ng/mL, 4 hours, read-out: Cell Assay: CS TF-1 reporter assay IC50. The protocol:
CSTF-1 Cell-Based Reporter Assay
CSTF-1 cells are derived from the human erythroleukemia cell line that is growth dependent on GM-CSF and has an intact GM-CSFR/JAK2/STAT5 pathway. The cell line contains stably integrated beta-lactamase reporter gene under the control of the […] (irf 1) response element recognized by the activated transcription factor STATS. csTF-1 cells (Invitrogen K1219) were washed with assay media (97% OPTIMEM/ 0.5% dialyzed FBS/0.1 mM NEAA/1 mM Na pyr/P/S) and seeded in the same media at 5×10^5 cell/mL in T150 flask. After 16 hour incubation, cells were seeded at 2×10^5 cell/well in 50 μl volume, into Costar, clear bottom, 96-well assay plates. Serial dilutions of compounds were added to the plates with final DMSO concentration at 0.5% and GM-CSF at 2 ng/mL and the plates were then incubated at […] and 5% CO2 for 4 hours. The plates were brought to room temperature before adding Substrate Mixture according to manufacturer's protocol (Invitrogen, Catalog #K1085). The assay plates containing the substrate mixture were incubated in the dark at room temperature for 2 hours. Blue and green fluorescence was measured with excitation at 409 nm and emission at 460 nm (for blue) and excitation at 409 nm and emission at 530 nm (for green) using Spectra Max Gemini EM.

pIC50, pKd: −log10 of the molar value. Read-outs that look alike come from different tables or passages of the source.

T3 sequence (O60674 whole entry): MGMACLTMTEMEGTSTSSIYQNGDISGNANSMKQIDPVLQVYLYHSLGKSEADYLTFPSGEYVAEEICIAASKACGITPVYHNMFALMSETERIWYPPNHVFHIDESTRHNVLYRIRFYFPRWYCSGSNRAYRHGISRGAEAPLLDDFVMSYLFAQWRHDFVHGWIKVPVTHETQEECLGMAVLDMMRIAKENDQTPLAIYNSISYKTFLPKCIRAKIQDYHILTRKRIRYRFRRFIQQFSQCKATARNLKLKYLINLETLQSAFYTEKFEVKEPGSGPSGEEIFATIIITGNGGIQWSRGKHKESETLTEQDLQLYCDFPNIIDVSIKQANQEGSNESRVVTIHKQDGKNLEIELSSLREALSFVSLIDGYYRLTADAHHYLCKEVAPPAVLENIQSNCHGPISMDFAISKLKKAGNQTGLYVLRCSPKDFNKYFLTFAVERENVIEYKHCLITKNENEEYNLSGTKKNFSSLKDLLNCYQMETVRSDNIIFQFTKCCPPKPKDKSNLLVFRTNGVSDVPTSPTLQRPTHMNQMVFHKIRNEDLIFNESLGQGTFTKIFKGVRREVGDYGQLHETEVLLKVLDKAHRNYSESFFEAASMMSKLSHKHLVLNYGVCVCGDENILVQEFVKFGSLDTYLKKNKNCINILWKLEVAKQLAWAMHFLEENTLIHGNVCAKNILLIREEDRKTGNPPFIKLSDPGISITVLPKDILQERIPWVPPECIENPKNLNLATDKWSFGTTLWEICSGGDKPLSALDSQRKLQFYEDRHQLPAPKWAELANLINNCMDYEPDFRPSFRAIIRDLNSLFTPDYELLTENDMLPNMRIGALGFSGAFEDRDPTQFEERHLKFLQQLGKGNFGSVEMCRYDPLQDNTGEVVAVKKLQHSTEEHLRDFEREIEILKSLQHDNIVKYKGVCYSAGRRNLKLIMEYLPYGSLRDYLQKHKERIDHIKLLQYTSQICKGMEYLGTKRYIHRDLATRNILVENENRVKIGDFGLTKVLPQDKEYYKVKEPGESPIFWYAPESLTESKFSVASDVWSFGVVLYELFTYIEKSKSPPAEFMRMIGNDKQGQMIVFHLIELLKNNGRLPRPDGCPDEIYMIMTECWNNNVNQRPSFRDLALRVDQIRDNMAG
T1 sequence (P29597 whole entry): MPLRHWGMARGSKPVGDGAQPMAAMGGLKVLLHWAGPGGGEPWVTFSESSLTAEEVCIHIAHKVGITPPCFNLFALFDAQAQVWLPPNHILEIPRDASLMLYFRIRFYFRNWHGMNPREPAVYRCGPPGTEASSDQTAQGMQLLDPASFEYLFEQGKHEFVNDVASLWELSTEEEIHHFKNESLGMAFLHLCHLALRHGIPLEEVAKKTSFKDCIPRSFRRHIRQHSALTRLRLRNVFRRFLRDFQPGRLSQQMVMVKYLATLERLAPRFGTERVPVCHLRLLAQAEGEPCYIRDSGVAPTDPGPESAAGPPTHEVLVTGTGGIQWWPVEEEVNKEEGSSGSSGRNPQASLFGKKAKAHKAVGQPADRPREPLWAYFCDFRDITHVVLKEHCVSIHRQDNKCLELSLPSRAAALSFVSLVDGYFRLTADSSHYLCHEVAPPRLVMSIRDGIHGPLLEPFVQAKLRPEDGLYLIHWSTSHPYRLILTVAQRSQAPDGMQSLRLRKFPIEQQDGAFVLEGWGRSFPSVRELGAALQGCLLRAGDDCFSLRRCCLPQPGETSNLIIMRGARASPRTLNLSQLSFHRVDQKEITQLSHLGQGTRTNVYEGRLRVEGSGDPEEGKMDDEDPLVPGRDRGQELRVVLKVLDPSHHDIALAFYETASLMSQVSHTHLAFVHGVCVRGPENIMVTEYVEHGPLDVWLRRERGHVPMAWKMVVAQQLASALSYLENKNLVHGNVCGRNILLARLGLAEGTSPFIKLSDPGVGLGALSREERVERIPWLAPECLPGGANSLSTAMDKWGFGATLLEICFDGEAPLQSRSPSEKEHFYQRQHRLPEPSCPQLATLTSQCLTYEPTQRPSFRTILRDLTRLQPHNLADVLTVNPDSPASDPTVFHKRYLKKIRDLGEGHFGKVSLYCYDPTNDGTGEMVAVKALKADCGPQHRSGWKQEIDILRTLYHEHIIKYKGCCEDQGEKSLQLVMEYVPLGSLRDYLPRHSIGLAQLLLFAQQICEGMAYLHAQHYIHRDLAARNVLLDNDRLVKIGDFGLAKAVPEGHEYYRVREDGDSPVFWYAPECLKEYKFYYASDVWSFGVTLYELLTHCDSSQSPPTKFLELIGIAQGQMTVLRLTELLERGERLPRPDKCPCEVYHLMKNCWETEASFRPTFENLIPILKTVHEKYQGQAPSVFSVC

For `Cc1cc(Nc2nc(C(O)c3ccc(F)cc3)nc3c(C)csc23)n[nH]1` (stereo not shown) [Example 23, (4-fluorophenyl)(7-methyl-4-(5-methyl-1H-pyrazol-3-ylamino)thieno[3,2-d]pyrimidin-2-yl)methanol], the pKd at TYK2 is no less than 8.00; at JAK3 it was 7.00 to 8.00; at JAK2, no less than 9.00. Besides, the “S-Score: S(10) at 10 μM” value in test [1] was “A (A ≦ 0.3)”. Further, the pIC50 in test [2] (Homo sapiens) was 6.30 to 7.00.

Regarding `Cc1cc(Nc2nc(C(=O)c3ccc(F)cc3)nc3cc(C(C)(C)C)sc23)n[nH]1` [Example 26, (6-tert-butyl-4-(5-methyl-1H-pyrazol-3-ylamino)thieno[3,2-d]pyrimidin-2-yl)(4-fluorophenyl) methanone], the values for the pKd on TYK2, on JAK3 and at JAK2 were less than 7.00, less than 7.00 and 8.00 to 9.00, respectively. In test [1], the “S-Score: S(10) at 10 μM” value is on record as “A (A ≦ 0.3)”. Besides, the pIC50 in test [2] (Homo sapiens) was 6.30 to 7.00.

For the compound `Cc1cc(Nc2nc(C(O)c3ccc(F)cc3)nc3cc(C(C)(C)C)sc23)n[nH]1` (stereo not shown) [Example 27, (6-tert-butyl-4-(5-methyl-1H-pyrazol-3-ylamino)thieno[3,2-d]pyrimidin-2-yl)(4-fluorophenyl)methanol], the pKd was less than 7.00 on TYK2, 7.00 to 8.00 on JAK3 and no less than 9.00 at JAK2. Besides, the “S-Score: S(10) at 10 μM” value in test [1] is given as “A (A ≦ 0.3)”. The pIC50 in test [2] (Homo sapiens) is 6.30 to 7.00.

Take `CC(C)(C)c1cc2nc(C(=O)c3ccc(F)cc3)nc(Nc3cc[nH]n3)c2s1` [Example 28, (4-(1H-pyrazol-3-ylamino)-6-tert-butylthieno[3,2-d]pyrimidin-2-yl)(4-fluorophenyl)methanone]: the results for the pKd on TYK2, on JAK3 and on JAK2 were less than 7.00, less than 7.00 and 8.00 to 9.00, respectively. Also, the “S-Score: S(10) at 10 μM” value in test [1] is listed as “A (A ≦ 0.3)”. Moreover, the pIC50 in test [2] (Homo sapiens) was 6.30 to 7.00.

With `Cc1cc(Nc2nc(C(F)(F)c3ccc(F)cc3)nc3cc(C(C)(C)C)sc23)n[nH]1` [Example 30, 6-tert-butyl-2-(difluoro(4-fluorophenyl)methyl)-N-(5-methyl-1H-pyrazol-3-yl)thieno[3,2-d]pyrimidin-4-amine], the pKd at TYK2 was less than 7.00; at JAK3 it was 7.00 to 8.00; on JAK2, 8.00 to 9.00. Moreover, the “S-Score: S(10) at 10 μM” value in test [1] is on record as “A (A ≦ 0.3)”. Besides, in test [2] (Homo sapiens), the pIC50 is 6.30 to 7.00.

As to `CC(C)(C)c1cc2nc(C(F)(F)c3ccc(F)cc3)nc(Nc3cc[nH]n3)c2s1` [Example 31, 6-tert-butyl-2-(difluoro(4-fluorophenyl)methyl)-N-(1H-pyrazol-3-yl)thieno[3,2-d]pyrimidin-4-amine], the figures for the negative-log Kd (pKd) on TYK2, on JAK3 and at JAK2 were less than 7.00, less than 7.00 and 8.00 to 9.00, respectively. Further, the “S-Score: S(10) at 10 μM” value in test [1] is given as “A (A ≦ 0.3)”. The pIC50 in test [2] (Homo sapiens) was 6.30 to 7.00.

As to `Cc1cc(Nc2nc(C(F)(F)c3ccc(F)cn3)nc3ccsc23)n[nH]1` [Example 33, 2-(difluoro(5-fluoropyridin-2-yl)methyl)-N-(5-methyl-1H-pyrazol-3-yl)thieno[3,2-d]pyrimidin-4-amine], the pKd at TYK2 was no less than 8.00; on JAK3, no less than 8.00; on JAK2, no less than 9.00. The “S-Score: S(10) at 10 μM” value in test [1] is “C (0.4 < C ≦ 0.5)”. For the same compound, in test [2] (Homo sapiens), the pIC50 was no less than 7.00.

As to “(4-(1H-pyrazol-3-ylamino)-7-methylthieno[3,2-d]pyrimidin-2-yl)(4-fluorophenyl)methanone [Example 24]”, the negative logarithm of the Kd (pKd) on TYK2 was less than 7.00; on JAK3 it was less than 7.00; at JAK2 it was 8.00 to 9.00. Also, in test [1], the “S-Score: S(10) at 10 μM” value is recorded as “A (A ≦ 0.3)”. Moreover, in test [2], the pIC50 is less than 6.30.
